Test results published in patent US4482560A, “Carbostyril derivatives, and antihistaminic agents containing the same” (priority 1979, dated 1984).
Where a name gives a salt, the structure may show the parent alone. Read-outs that look alike come from different tables or passages of the source.

Legend:
ileum of a guinea pig = ileum of a guinea pig (Cavia porcellus, UniProt P31389); assay: cell-based
Method: Pharmacological tests of the present compounds were conducted according to said method as follows:
A male guinea pig having 300 to 500 g body weight is killed by blood letting. An ileum having length of 15 cm being enucleated from the ileocecal region is dipped into Tyrode's solution (which is prepared from 8.0 g of NaCl, 0.2 g of KCl, 0.2 g of CaCl2, 1.0 g of glucose, 1.0 g of NaHCO3, 0.065 g of NaHPO4.2H2 O and 0.2135 g of MgCl2.6H2 O to make 1000 ml in total volume by adding water). Then the tissue of ileum is cut to a length of 2.5 to 3.0 cm and suspended in an organ bath filled with 30 ml of Tyrode's solution. The organ bath is kept a temperature of 36° C. while blowing a mixed gas consisting of 5% of CO2 and 95% of O2 into the bath. 10 Minutes after the blowing, 10^-6 M of histamine is added to the bath to examine the sensitivity of the tissue and a reaction curve (control) with respect to the dosage of histamine is obtained. After the dosage of histamine-reaction curve (control) become constant 10^-6 g/ml of a compound to be tested is added to the bath and further histamine is added 5 minutes later to obtain dosage-reaction curve. Retraction of the ileum is recorded on a pen-recorder through an isotonic transducer (TD-112S manufactured by Nihon Koden).

Acute toxicity test = settings: rat, in vivo; oral, male rats
Source text: Each of the compounds of the present invention was orally administered to male rats to determine the acute toxicity.

Male mice of ddy-strain = assay: Halothane anesthesia increasing activity; assay type: in vivo, mouse; settings: for Time (minutes) between introduction of anesthesia and waking (righting reflex): oral, 32 mg/kg, 1 hour before 4% Halothane for 3 minutes, male ddy mice, saline control 4.2; for Halothane anesthesia increasing activity / central nervous controlling effect in words: compared with control (physiological saline solution)
Method: Male mice of ddy-strain having about 20 g body weight were used. One test group consists of 10 mice. An aqueous Gummi Arabicum suspension of test compound (80 mg of a compound to be tested and 1 g of Gummi Arabicum/100 ml of physiological NaCl solution) was administered orally to each mouse at the dosage of 32 mg of test compound/kg body. One hour after the administration, each mouse was placed in gas respiration chamber (13×13×24 cm) and oxygen gas containing 4% of Halothane [2-bromo-2-chloro-1,1,1-trifluoroethane] was blown into the chamber at the velocity of 2 l/min for 3 minutes. A mouse anaesthetized was taken out from the chamber and the time between the introduction of anesthesia to waking was measured by righting reflex as the index. To mice of control group, 1% Gummi Arabicum aqueous physiological solution was orally administered at the dosage of 0.1 ml/kg body. (Reference: M. J. Turnbull and J. W. Watkins: Br. J. Pharmacol., 58, 27-35 (1976))

[1] = histamine-induced retraction of guinea pig ileum, test compound 10^-6 g/ml, 36° C., Van Rossam method, read-out: pA2 (converted)
[2] = histamine-induced retraction of guinea pig ileum, test compound 10^-6 g/ml, 36° C., Van Rossam method

Sequence of ileum of a guinea pig (P31389 whole entry): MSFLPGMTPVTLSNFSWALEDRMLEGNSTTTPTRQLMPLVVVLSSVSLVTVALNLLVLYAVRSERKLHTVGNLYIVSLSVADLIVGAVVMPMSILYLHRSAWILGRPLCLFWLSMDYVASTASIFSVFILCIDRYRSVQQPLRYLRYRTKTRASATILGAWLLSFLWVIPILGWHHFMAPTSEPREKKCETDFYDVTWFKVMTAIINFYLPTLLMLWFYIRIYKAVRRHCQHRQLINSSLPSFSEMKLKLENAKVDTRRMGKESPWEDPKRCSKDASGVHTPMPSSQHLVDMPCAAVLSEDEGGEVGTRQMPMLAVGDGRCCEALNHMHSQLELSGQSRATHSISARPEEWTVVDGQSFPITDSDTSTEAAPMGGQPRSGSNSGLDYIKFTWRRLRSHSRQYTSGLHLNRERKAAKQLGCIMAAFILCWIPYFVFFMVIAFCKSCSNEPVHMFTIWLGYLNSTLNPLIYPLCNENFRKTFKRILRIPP

Molecule	Kb (ileum of a guinea pig; [1]) [nM]	LD50 (Acute toxicity test) [mg/kg]	Time (minutes) between introduction of anesthesia and waking (righting reflex) (Male mice of ddy-strain) [min]	Halothane anesthesia increasing activity / central nervous controlling effect in words (Male mice of ddy-strain)	pA2 (ileum of a guinea pig; [2])	Kb (ileum of a guinea pig) [nM]
CC(C)(C)NCC(O)c1cc(Cl)c2c(c1)CCC(=O)N2 (stereo not drawn) [K, 8-Chloro-6-(1-hydroxy-2-tert-butylamino-ethyl)-3,4-dihydrocarbostyril monohydrochloride, reference compound]	47900					
CCN1C(=O)CCc2c(OCC(O)CN3CCC(Cc4ccccc4)CC3)cccc21.O=C(O)C(=O)O (stereo not drawn) [Compound 7, 1-Ethyl-5-[2-hydroxy-3-(4-benzyl-1-piperidyl)-propoxy]-3,4-dihydrocarbostyril monooxalate]	0.224	> 1000	4.2			
O=C1CCc2c(OCC(O)CN3CCC(Cc4ccccc4)CC3)ccc(Br)c2N1 (stereo not drawn) [Compound 8, 8-Bromo-5-[2-hydroxy-3-(4-benzyl-1-piperidyl)-propoxy]-3,4-dihydrocarbostyril]	4.07	> 1000	5.5			
7-[4-β-Chlorophenyl)-1-piperazinylpropoxy]-carbostyril [reference compound]			32.7	different Halothane anesthesia increasing activity as compared with control		
COc1ccc(CCNC(C)C(O)c2cc(Cl)c3c(c2)CCC(=O)N3)cc1OC (stereo not drawn) [O, 8-Chloro-6-[1-hydroxy-2-(β-3,4-dimethoxy-phenethylamino)propyl]-3,4-dihydrocarbostyril hydrochloride, reference compound]	1480					
CC(C(O)c1cc(Cl)c2c(c1)CCC(=O)N2)N1CCN(c2ccccc2)CC1 (stereo not drawn) [M, 8-Chloro-6-[1-hydroxy-2-(4-phenyl-1-piperazinyl)propyl]-3,4-dihydrocarbostyril monohydrochloride, reference compound]	6460					
C#CCN1C(=O)CCc2c(OCCCN3CCC(Cc4ccccc4)CC3)cccc21.Cl [Compound 3, 1-Propargyl-5-[3-(4-benzyl-1-piperidyl)-propoxy]-3,4-dihydrocarbostyril monohydrochloride]	0.186	> 1000	5.1			
COc1ccc(N2CCN(CC(O)COc3ccc(NC(N)=O)c4c3CCC(=O)N4)CC2)cc1.Cl (stereo not drawn) [S, 5-{2-Hydroxy-3-[4-(4-methoxyphenyl)-1-piperazinyl]propoxy}-8-ureido-3,4-dihydrocarbostyril hydrochloride, reference compound]	10.7		9.1	different Halothane anesthesia increasing activity as compared with control		
CN1C(=O)CCc2c(OCCCN3CCC(Cc4ccccc4)CC3)cccc21.Cl [Compound 4, 1-Methyl-5-[3-(4-benzyl-1-piperidyl)propoxy]-3,4-dihydrocarbostyril monohydrochloride]	0.01	> 1000	4.2			
C=CCN1C(=O)CCc2c(OCC(O)CN3CCC(Cc4ccccc4)CC3)cccc21.O=C(O)C(=O)O (stereo not drawn) [Compound 6, 1-Allyl-5-[2-hydroxy-(4-benzyl-1-piperidyl)-propoxy]-3,4-dihydrocarbostyril monooxalate]	0.288	> 1000	5.6			
O=c1ccc2ccc(OCCCN3CCN(c4ccccc4)CC3)cc2[nH]1 [G, 7-(4-Phenyl-1-piperazinylpropoxy)carbostyril, reference compound]			28.7			
8-(2-Propionyloxy)-5-[2-hydroxy-3-(4-phenyl-1-piperazinyl)propoxy]-3,4-dihydrocarbostyril hydrochloride [Q, reference compound]			8.7	different Halothane anesthesia increasing activity as compared with control	8.65	
O=c1ccc2cccc(OCCCN3CCN(c4ccccc4)CC3)c2[nH]1 [F, 8-(4-Phenyl-1-piperazinylpropoxy)carbostyril, reference compound]			9.5		8.58	
Cc1cc(=O)[nH]c2cc(OCCCN3CCN(Cc4ccc(Cl)cc4)CC3)ccc12 [J, reference compound]			8.5	different Halothane anesthesia increasing activity as compared with control	9.13	
Cc1cc(=O)[nH]c2cc(OCCCN3CCC(Cc4ccccc4)CC3)ccc12 [Compound 5, 4-Methyl-7-[3-(4-benzyl-1-piperidyl)propoxy]-carbostyril]	0.257	> 1000	4.6			
CC(C(=O)c1cc(Cl)c2c(c1)CCC(=O)N2)N1CCN(c2ccccc2)CC1 (stereo not drawn) [Compound N, 8-Chloro-6-[α-(4-phenyl)-1-piperazinyl)-propionyl]-3,4-dihydrocarbostyril hydrochloride, reference compound]						617
Cc1cc(=O)[nH]c2ccc(OCCCN3CCN(c4ccccc4)CC3)cc12 [H, 4-Methyl-6-(4-phenyl-1-piperazinylpropoxy)-carbostyril, reference compound]	0.269					
O=C(O)C(=O)O.O=C1CCc2c(OCC(O)CN3CCC(Cc4ccccc4)CC3)cccc2N1Cc1ccccc1 (stereo not drawn) [Compound 12, 1-Benzyl-5-[2-hydroxy-(4-benzyl-1-piperidyl)-propoxy]-3,4-dihydrocarbostyril monooxalate]	0.02	> 1000	4.2			
COc1ccc(N2CCN(CC(O)COc3ccc(OCc4ccccc4)c4c3CCC(=O)N4)CC2)cc1 (stereo not drawn) [R, Benzyloxy-5-{2-hydroxy-3-[4-(4-methoxy-phenyl)-1-piperazinyl]propoxy}-3,4-dihydrocarbostyril hydrochloride, reference compound]					9.57	
CC(=O)Oc1ccc(OCC(O)CN2CCN(c3ccccc3Cl)CC2)c2c1NC(=O)CC2 (stereo not drawn) [P, 8-Acetyoxy-5-{2-hydroxy-3-[4-(2-chloro-phenyl)-1-piperazinyl]propoxy}-3,4-dihydrocarbostyril hydrochloride, reference compound]	24		8.9	different Halothane anesthesia increasing activity as compared with control		
COc1ccc(CCNC(C)C(=O)c2cc(Cl)c3c(c2)CCC(=O)N3)cc1OC (stereo not drawn) [L, 8-Chloro-6-[α-(β-3,4-dimethoxyphenethyl-amino)propionyl]-3,4-dihydrocarbostyril monohydrochloride, reference compound]	4790					
O=C1CCc2c(cccc2OCCCN2CCC(O)(c3ccccc3)CC2)N1 [Compound 14, 5-{3-[4-(4-Hydroxy-4-phenyl)-1-piperidyl]}-3,4-dihydrocarbostyril]		> 1000	5.1		9.30	
Cc1ccccc1N1CCN(CC(O)COc2ccc(NS(C)(=O)=O)c3c2CCC(=O)N3)CC1 (stereo not drawn) [T, 8-Methanesulfonylamino-5-{2-hydroxy-3-[4-(2-methylphenyl)-1-piperazinyl]propoxy}-3,4-dihydro-carbostyril, reference compound]	15.8		8.9	different Halothane anesthesia increasing activity as compared with control		
